From US8609091B2, “Method for endocytic presentation of an immunosuppressive for the treatment of type 1 diabetes” (The Curators of the University of Missouri, priority 2002, dated 2013)

Key:
Type in all cases: cell-based, NOD mice
[1] = system: INSβ-specific T cell line; test: Presentation to INSβ-specific T cell line ([3H]thymidine proliferation); conditions: irradiated NOD splenic APCs; peptides 10 μM, Ig-chimeras 1 μM; 3-day incubation
Protocol: T cell lines: A T cell line specific for INSβ peptide was generated by immunizing NOD mice with 100 μg of INSβ peptide in 200 μl PBS/CFA (vol/vol) subcutaneously (“s.c.”) in the footpads and at the base of each limb. After 10 days, the draining lymph nodes were removed, and T cells were stimulated in vitro for 2 rounds in the presence of irradiated (3000 rads), syngenic splenocytes, 5% T-Stim supplement (Collaborative Biomedical Products, Bedford, Mass.), and INSβ peptide (25 μg/ml). […]
(§1) Presentation of Ig-INSβ chimera to specific T cells was then determined. […] For presentation of INSβ peptide and Ig-INSβ (FIGS. 2(a) and 2(b) respectively), the activation was assessed by [^3H] thymidine incorporation since the T cells were from a line. Accordingly, 1 μCi [^3H]thymidine per well was added during the last 14 hours of a 3-day incubation period and the cells were harvested, and the radioactivity counted. For presentation of HEL peptide (FIG. 2(c)) and Ig-HEL (FIG. 2(d)), T cell activation was assessed by measuring IL-2 production as the HEL-specific cells were from a hybridoma. Accordingly, after 24 hours incubation IL-2 was measured in 100 μl supernatant by ELISA. […]

Splenic cells = test: IFNγ response of splenic cells from 14 week old mice; conditions: INSβ peptide 18 μM, Ig-INSβ chimeras 1 μM; 24 hours; no rIL-10
Protocol: (§2) Detection of IL-10 and IFNγ was performed according to BD Pharmingen's standard protocol. The capture Abs were as follows: rat anti-mouse IL-10, JES5-2A5 and rat anti-mouse IFNγ, R4-6A2. The biotinylated anti-cytokine Abs were as follows: rat anti-mouse IL-10, JES5-16E3 and rat anti-mouse IFNγ, XMG1.2. Both antibodies were purchased from BD Pharmingen (San Diego, Calif.). ELISA for the detection of active TGFβ was preformed using the human TGFβ1 DuoSet kit (R&D systems, Minneapolis, Minn.) according to the manufacturer's instructions. […] All assays were read on a SpectraMAX 190 counter. Graded amounts of recombinant mouse IFNγ, IL-10, and TGFβ were included in all experiments for construction of standard curves. The cytokine concentration in culture supernatants was interpolated from the linear portion of the standard curve.
To test this premise, splenic and islet cells from 14 week old mice were stimulated with agg Ig-INSβ, which induces IL-10 production by the presenting APCs and secretion of IFNγ was measured. Splenic (a) and islet (b) cells (5×10^5 cells/well) from 14 week old female NOD mice were stimulated with the indicated antigen in the presence or absence of 1 ng of rIL-10 for 24 hours. The supernatant (100 μl/well) was used to measure IFNγ by ELISA as indicated in “Materials and Methods”. […]

islet cells = test: IFNγ response of islet cells from 14 week old mice; conditions: INSβ peptide 18 μM, Ig-INSβ chimeras 1 μM; 24 hours; no rIL-10
Protocol: as §2
Islet-infiltrating cells were derived from 14 week old female NOD mice by collagenase digestion as previously described (36). […] Viability of the cells was determined by trypan blue exclusion.
To test this premise, splenic and islet cells from 14 week old mice were stimulated with agg Ig-INSβ, which induces IL-10 production by the presenting APCs and secretion of IFNγ was measured. […]

HEL-specific hybridoma = test: Presentation to HEL-specific T cell hybridoma (IL-2 production); conditions: irradiated NOD splenocytes; peptides 10 μM, Ig-chimeras 1 μM; 24 hours
Protocol: T cell hybridomas: A HEL-specific T cell line was fused with the αβ TCR negative thymoma BW1100 (ATCC) using polyethylene glycol 4000 (Sigma, St. Louis, Mo.). Hybrids were then selected by supplementing the culture media with hypoxanthine-azaserine (Sigma). Resulting hybridomas were then screened for reactivity to HEL peptide by testing for production of IL-2 in the supernatant following stimulation with irradiated (3000 rads) splenocytes in the presence of 15 μg/ml HEL peptide. Positive hybridomas were then cloned by limiting dilution and used to assess presentation of HEL peptide and Ig-HEL chimera.
as §1

Sequence	proliferation of the INSβ-specific T cell line [1]	IFNγ response of splenic T cells (Splenic cells)	IFNγ response of islet T cells (islet cells)	stimulation of HEL-specific hybridoma (IL-2 production) (HEL-specific hybridoma)
SHLVEALYLVCGERG [INSβ peptide]	proliferated significantly	developed IFNγ responses	developed IFNγ responses	
AMKRHGLDNYRGYSL [HEL peptide]	unable to induce proliferation			able to stimulate the HEL-specific hybridoma
